Columns and labels:
[1] = biological target: PIK3CA (human), P42336 [Antiproliferation of PI3K Mutated BT20 Cells]; test: Cell-Based Assay
[2] = biological target: PIK3CA (human) (UniProt P42336); test: Inhibition of PIK3CA Kinase Activity
Sequence of PIK3CA (human) (P42336 whole entry, looked up): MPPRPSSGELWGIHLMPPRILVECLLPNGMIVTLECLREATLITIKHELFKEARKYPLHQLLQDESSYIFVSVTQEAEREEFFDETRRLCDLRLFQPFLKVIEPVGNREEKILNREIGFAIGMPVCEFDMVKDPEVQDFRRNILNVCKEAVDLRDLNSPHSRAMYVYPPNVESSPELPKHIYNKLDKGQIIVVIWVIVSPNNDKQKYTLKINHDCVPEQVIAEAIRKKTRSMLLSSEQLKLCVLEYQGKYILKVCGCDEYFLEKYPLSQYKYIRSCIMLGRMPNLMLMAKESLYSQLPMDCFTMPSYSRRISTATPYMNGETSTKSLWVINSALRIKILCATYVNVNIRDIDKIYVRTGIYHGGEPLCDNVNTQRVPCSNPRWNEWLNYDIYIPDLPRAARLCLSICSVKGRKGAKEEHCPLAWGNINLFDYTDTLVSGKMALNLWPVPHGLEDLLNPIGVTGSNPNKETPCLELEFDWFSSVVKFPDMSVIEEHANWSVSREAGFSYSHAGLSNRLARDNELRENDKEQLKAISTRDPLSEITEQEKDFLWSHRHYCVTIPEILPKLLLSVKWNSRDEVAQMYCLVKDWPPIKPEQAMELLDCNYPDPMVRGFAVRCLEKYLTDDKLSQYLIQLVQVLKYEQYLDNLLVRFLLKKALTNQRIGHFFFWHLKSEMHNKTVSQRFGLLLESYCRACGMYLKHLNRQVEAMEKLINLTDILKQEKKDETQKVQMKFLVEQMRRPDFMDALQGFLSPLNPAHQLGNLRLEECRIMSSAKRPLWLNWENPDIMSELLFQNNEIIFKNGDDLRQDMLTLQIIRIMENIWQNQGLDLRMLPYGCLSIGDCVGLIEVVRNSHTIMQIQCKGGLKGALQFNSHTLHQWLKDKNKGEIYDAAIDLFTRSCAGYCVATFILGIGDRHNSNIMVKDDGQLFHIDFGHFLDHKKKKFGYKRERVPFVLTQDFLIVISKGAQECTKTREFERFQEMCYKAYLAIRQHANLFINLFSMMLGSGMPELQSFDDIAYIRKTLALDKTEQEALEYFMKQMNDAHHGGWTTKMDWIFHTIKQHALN

Sequence of PIK3CA (human), P42336 [Antiproliferation of PI3K Mutated BT20 Cells] (P42336 whole entry, looked up, change not shown): as the sequence (P42336 whole entry, looked up) above

Compound | IC50 [1] [nM] | IC50 [2] [nM]
COc1cccc(-c2cc3c(C)nc(N)nc3n(C3CCCC3)c2=O)c1 | 622 | 168
Cc1nc(N)nc2c1cc(-c1cn[nH]c1)c(=O)n2[C@H]1CC[C@H](OCCO)CC1 | 33.5 | 7.58
COc1ccc(-c2cc3c(C)nc(N)nc3n(CC3CCCO3)c2=O)cn1 (stereo not drawn) | 120 | 21
CCNc1nc(C)c2cc(CCCO)c(=O)n(C3CCCC3)c2n1 | 2750 | 4
COc1ncc(-c2cc3c(C)nc(N)nc3n([C@H]3C[C@H](OCCO)C3)c2=O)cc1F | 14.6 | 3.11
COc1ccc(-c2cc3c(C)nc(N)nc3n(C3CCCC3)c2=O)cc1F | 45.9 | 15
Cc1nc(N)nc2c1cc(-c1cnc3[nH]ccc3c1)c(=O)n2C1CC1 | 138 | 17
CCNc1nc(C)c2cc(-c3cccnc3N)c(=O)n(C3CCCC3)c2n1 | 7980 | 3400
CCNc1nc(C)c2cc(CCC(=O)O)c(=O)n(C3CCCC3)c2n1 | 10000 | 54
CCNc1nc(C)c2cc(-c3cnc4[nH]ccc4c3)c(=O)n(C3CCCC3)c2n1 | 46.1 | 1.77
Cc1nc(N)nc2c1cc(-c1cnc3[nH]ccc3c1)c(=O)n2C1CCOCC1 | 15.3 | 3.7
CCOc1ccc(-c2cc3c(C)nc(N)nc3n([C@H]3CC[C@H](O)CC3)c2=O)cn1 | 21.2 | 2.7
COc1ccc(-c2cc3c(C)nc(NCC(F)F)nc3n([C@H]3CC[C@H](O)CC3)c2=O)cn1 | 46.8 | 12
CCNc1nc(C)c2cc(CCC(=O)OCC)c(=O)n(C3CCCC3)c2n1 | 10000 | 5500
CNc1nc(C)c2cc(-c3cnc(N)c(OC[C@H](C)N)n3)c(=O)n(C3CCCC3)c2n1 | 2330 | 400
COc1ccc(-c2cc3c(C)nc(N)nc3n(CC(F)(F)F)c2=O)cn1 | 262 | 130
Cc1nc(N)nc2c1cc(-c1cnc3[nH]ccc3c1)c(=O)n2C1CCCC1 | 2.76 | 0.48
CNc1nc(C)c2cc(-c3cn[nH]c3)c(=O)n(CC3CCOC3)c2n1 (stereo not drawn) | 22.1 | 6
Cc1nc(N)nc2c1cc(-c1ccc(C#N)nc1)c(=O)n2[C@H]1CC[C@H](O)CC1 | 2690 | 470
COc1ncc(-c2cc3c(C)nc(N)nc3n(C3CCOCC3)c2=O)cn1 | 26.7 | 45
CNc1nc(C)c2cc(-c3cn[nH]c3)c(=O)n(C3CCCC3)c2n1 | 2.58 | 8
Cc1nc(N)nc2c1cc(-c1ccc(N3CCCC3)nc1)c(=O)n2C1CCCC1 | 26.5 | 88
CNc1nc(C)c2cc(-c3cccnc3OC)c(=O)n(C3CCCC3)c2n1 | 3530 | 275
Cc1nc(N)nc2c1cc(-c1cnc3[nH]ccc3c1)c(=O)n2CC1CCCO1 (stereo not drawn) | 36.6 | 5.4
CNc1nc(C)c2cc(-c3ccc(Cl)nc3)c(=O)n(C3CCCC3)c2n1 | 146 | 29.7
Cc1nc(N)nc2c1cc(-c1cccc(Cl)n1)c(=O)n2C1CCCC1 | 3450 | 170
Cc1nc(N)nc2c1cc(Br)c(=O)n2C1CCC(=O)CC1 | 211 | 110

Compound | IC50 [1] [nM] | IC50 [2] [nM]
COc1ncc(-c2cc3c(C)nc(N)nc3n([C@H]3CC[C@H](OCCO)CC3)c2=O)cn1 | 38.9 | 2.2
Cc1nc(N)nc2c1cc(Br)c(=O)n2C1CCOC1 (stereo not drawn) | 1670 | 230
CNc1nc(C)c2cc(-c3ccc(OC)nc3)c(=O)n(C3CCC3)c2n1 | 58.4 | 6.3
Cc1nc(N)nc2c1cc(Br)c(=O)n2[C@H]1CC[C@H](OCCO)CC1 | 96.5 | 55.2
Cc1nc(N)nc2c1cc(-c1cn[nH]c1)c(=O)n2[C@H]1CC[C@H](O)CC1 | 169 | 6.7
Cc1nc(N)nc2c1cc(Br)c(=O)n2[C@H]1CC[C@H](O)CC1 | 305 | 44
Cc1nc(N)nc2c1cc(-c1ccc3cc[nH]c3n1)c(=O)n2[C@H]1CC[C@@H](O)CC1 | 25.4 | 1.6
Cc1nc(N)nc2c1cc(-c1cnc3[nH]ccc3c1)c(=O)n2[C@@H]1CC[C@H](O)C1 | 20.4 | 1.2
Cc1nc(N)nc2c1cc(-c1cn[nH]c1)c(=O)n2C1CCOCC1 | 19.9 | 18.5
CNc1nc(C)c2cc(/C=C/O)c(=O)n(C3CCCC3)c2n1 | 896 | 42
Cc1nc(N)nc2c1cc(-c1cnc3[nH]ccc3c1)c(=O)n2[C@H]1CC[C@H](O)CC1 | 31.9 | 1.3
Cc1nc(N)nc2c1cc(-c1cncc(N)n1)c(=O)n2C1CCCC1 | 33.9 | 20
COc1ncc(-c2cc3c(C)nc(N)nc3n([C@H]3C[C@H](OCC(N)=O)C3)c2=O)cn1 | 110 | 5.91
Cc1nc(N)nc2c1cc(-c1cnc3[nH]ccc3c1)c(=O)n2[C@@H]1CC[C@@H](O)C1 | 55.8 | 1.2
CNc1nc(C)c2cc(-c3ccc(OC)nc3)c(=O)[nH]c2n1 | 2760 | 460
COc1ccc(-c2cc3c(C)nc(N)nc3n(C3CCN(C(C)=O)C3)c2=O)cn1 (stereo not drawn) | 127 | 7
CNc1nc(C)c2cc(Br)c(=O)n(CC3CCOC3)c2n1 (stereo not drawn) | 594 | 48
Cc1nc(N)nc2c1cc(Br)c(=O)n2CC1CCOC1 (stereo not drawn) | 1020 | 94
CCn1nccc1NC(=O)c1cc2c(C)nc(N)nc2n([C@H]2CC[C@H](O)CC2)c1=O | 50.5 | 1.3
CNc1nc(C)c2cc(-c3cnn(CCO)c3)c(=O)n(C3CCCC3)c2n1 | 234 | 24
Cc1nc(N)nc2c1cc(Br)c(=O)n2[C@H]1CC[C@@H](O)CC1 | 228 | 130
Cc1nc(N)nc2c1cc(-c1cn[nH]c1)c(=O)n2C1CCC(=O)CC1 | 4.66 | 12
CCNc1nc(C)c2cc(-c3cccc(O)c3)c(=O)n(C3CCCC3)c2n1 | 3.05 | 1.01
CNc1nc(C)c2cc(-c3c[nH]c(C)n3)c(=O)n(C3CCCC3)c2n1 | 181 | 67
Cc1nc(N)nc2c1cc(C#N)c(=O)n2C1CCC1 | 2090 | 95
Cc1nc(N)nc2c1cc(-c1cnc3[nH]ccc3c1)c(=O)n2C1CCC1 | 11.9 | 2
CNc1nc(C)c2cc(-c3ncccc3F)c(=O)n(C3CCCC3)c2n1 | 8300 | 2100

Compound | IC50 [1] [nM] | IC50 [2] [nM]
COc1ccc(-c2cc3c(C)nc(N)nc3n([C@@H]3CC[C@@H](O)C3)c2=O)cn1 | 87.6 | 4.6
COc1ncccc1-c1cc2c(C)nc(N)nc2n(C2CCCC2)c1=O | 5480 | 856
Cc1nc(N)nc2c1cc(-c1cnn(C)c1)c(=O)n2[C@H]1CC[C@H](O)CC1 | 475 | 18
Cc1nc(N)nc2c1cc(Br)c(=O)n2CC1CCCO1 (stereo not drawn) | 2130 | 100
COc1ccc(-c2cc3c(C)nc(N)nc3n(CC(C)(C)F)c2=O)cn1 | 437 | 30
Cc1nc(N)nc2c1cc(-c1cccc(CO)c1)c(=O)n2C1CCOCC1 | 33.2 | 3.9
Cc1nc(N)nc2c1cc(-c1cc[nH]n1)c(=O)n2[C@H]1CC[C@H](O)CC1 | 25.2 | 10
CO[C@H]1CC[C@H](n2c(=O)c(-c3ccc(N(C)C)nc3)cc3c(C)nc(N)nc32)CC1 | 10.1 | 6.2
COc1ccc(-c2cc3c(C)nc(NCC(C)(C)O)nc3n(C3CCCC3)c2=O)cn1 | 5750 | 830
COc1ccc(-c2cc3c(C)nc(N)nc3n([C@H]3CC[C@H](OC)CC3)c2=O)cn1 | 7.37 | 3.9
Cc1nc(N)nc2c1cc(-c1c[nH]nn1)c(=O)n2C(C)C | 556 | 62
Cc1nc(N)nc2c1cc(-c1cnc(O)nc1)c(=O)n2C(C)C | 2520 | 300
CNc1nc(C)c2cc(-c3cnc4[nH]ccc4c3)c(=O)n(C3CCCC3)c2n1 | 3.82 | 0.75
CCNc1nc(C)c2cc(-c3cnc(OC)nc3)c(=O)n([C@H]3CC[C@H](O)CC3)c2n1 | 20.6 | 1.59
Cc1nc(N)nc2c1cc(-c1cnc(O)nc1)c(=O)n2C1CCOCC1 | 10000 | 810
CCNc1nc(C)c2cc(-c3ccc(O)c(OC)c3)c(=O)n(C3CCCC3)c2n1 | 26.3 | 3.08
COc1ccc(-c2cc3c(C)nc(N)nc3n([C@@H]3CC[C@H](O)C3)c2=O)cn1 | 82.9 | 11
CNc1nc(C)c2cc(-c3cnn(C)c3)c(=O)n(C3CCCC3)c2n1 | 314 | 39
Cc1nc(N)nc2c1cc(-c1cnn(CC(F)F)c1)c(=O)n2C1CCCC1 | 397 | 12
COc1ccc(-c2cc3c(C)nc(N)nc3n([C@H]3C[C@H](OCC(N)=O)C3)c2=O)cn1 | 33.5 | 4.72
CCNc1nc(C)c2cc(CCC(=O)Nc3ncc[nH]3)c(=O)n(C3CCCC3)c2n1 | 5710 | 310
Cc1nc(N)nc2c1cc(-c1cn[nH]c1)c(=O)n2C1CCC(C)(O)CC1 (stereo not drawn) | 15.2 | 18
Cc1nc(N)nc2c1cc(C(=O)Nc1ccn[nH]1)c(=O)n2C(C)C | 30.5 | 2.9
C=CCn1c(=O)c(-c2ccc(OC)nc2)cc2c(C)nc(NC)nc21 | 106 | 17
Cc1nc(N)nc2c1cc(Br)c(=O)n2CC(C)(C)O | 2360 | 680

— the Kinase Knowledgebase extract (Sharma et al. 2016)
